# Measured values taken from patent US20260294863A1, “METHOD OF TREATING FIBROTIC-RELATED CONDITION” (YISSUM RESEARCH DEVELOPMENT COMPANY OF THE HEBREW …, priority 2023, published 2026).
# Tests used:
# IL1β = test: Secretion of IL1β from BzATP/LPS-activated microglia (ELISA); format: cell-based, Balb/C mice
# Procedure: (§1) Experiments were performed on primary microglial cells isolated from brains of neonatal Balb/C mice as previously described (Reichert and Rotshenker, 2003). The brains were stripped of their meninges and enzymatically dissociated. Cells were plated on Poly-L-lysine coated flasks for one week, re-plated for 1- to 2-hr on bacteriological plates and non-adherent cells were washed away. Microglia were propagated by incubation in 20% of medium, conditioned by the L-cell line that produces mouse-CSF. They were identified by morphology and positive immune-reactivity to P2y12, F4/80, complement receptor-3 and Galectin-3/MAC-2 (Reichert and Rotshenker 2003; Gitik et al. 2011).
# Cytokines were measured as previously described (Shamash et al. 2002) using ELISA Max deluxe set (Biolegend, CA, USA) for secreted TNFα and IL-6 proteins and ELISA DuoSet (R&D systems, UK) for secreted and cell associated IL-1β, according to manufacturer's instructions.
# The effect of ladostigil at concentrations of 1×10^−13 M to 1×10^−9 M on the secretion of cytokine proteins was assessed by adding it to microglia for 2 hr before LPS (0.75 μg/ml) and BzATP (400 μM). Other microglia were treated similarly with the steroid, budesonide as a reference standard at concentrations of 1× 10^−13 to 1× 10^−11 M. Measurements of cytokine secretion were performed 8 hrs after addition of LPS and BzATP. Since the levels of secreted IL-1β were still low, samples were concentrated 2- to 4-fold by an Amicon ultra-centrifugal filter device (Merck-Millipore, Ireland). ELISA was used to quantify the levels of cytokine proteins. Protein content in the microglia lysate was measured by Bradford and levels of cytokines were calculated and presented as pg/μg of microglial protein.
# [1] = system: BzATP/LPS-activated microglia; test: Gene expression (RNA-seq) in BzATP/LPS-activated microglia; format: cell-based, Balb/C mice; details: 1×10^−10 M, 8 hrs after BzATP/LPS
# Procedure: as §1
# Ladostigil (1×10^−10 M) was added to microglia for 2 hrs before BzATP/LPS. Cells were harvested before and 8 hr after addition of BzATP/LPS. Total RNA was extracted using the RNeasy Plus Universal Mini Kit (QIAGEN) according to the manufacturer's protocol. Total RNA samples (1 μg RNA) were enriched for mRNAs by pull-down of poly A. Libraries were prepared using the KAPA Stranded mRNA-Seq Kit according to the manufacturer's protocol and sequenced using Illumina NextSeq 500 to generate 85 bp single-end reads (total 25-30 million reads per sample) as described in Zohar et al. (2021).
# Next-generation sequencing data underwent quality control using FastQC. They were then preprocessed using Trimmomatic (Bolger et al. 2014) and aligned to the reference genome GRCm38 with the STAR aligner (Dobin et al. 2013) using default parameters. Genomic loci were annotated using GENCODE version M25 (Frankish et al. 2019). Genes with low expression were filtered out of the dataset by setting a threshold of a minimum of 2 counts-per-million in three samples.
# Pair-wise differential analyses were performed between all […] BzATP/LPS time points and genes with an FDR <0.01 were considered.
# [2] = system: bleomycin-induced lung fibrosis; test: Lung fibrosis score / collagen content in bleomycin-induced lung fibrosis; format: in vivo, C57BL/6JOlaHsd mice
# Procedure: The animal model of bleomycin-induced lung fibrosis is widely used to characterize the potential inhibitory effect of newly developed drugs (Distler et al. 2019). Experiments were performed in C57BL/6JOlaHsd male and female mice aged 12-13 weeks. Male mice weighed 23-27.3 g and female mice, 19.4-21.1 g. They were housed under pathogen-free conditions, up to 6 per cage, in IVC cages under a controlled temperature of 22-24° C., humidity and alternating 12-h light/dark cycles and provided with food and water ad libitum. In order to minimize the stress of daily injection, ladostigil (5 mg/Kg/day) was administered by micro-osmotic pumps, implanted subcutaneously under ketamine/xylazine anesthesia, 5 days before administration of bleomycin, and delivered for 3 weeks to mice of each sex. Saline (2-3/sex) and bleomycin controls were anesthetized as described above. Bleomycin solution (0.25 mg/kg in 50 μl) was instilled into the lumen of the trachea as shown in a video by Ehrentraut et al. (2019). […] Mice were weighed daily and sacrificed on day 21. Bronchial fluid was collected as described in Ehrentraut et al. (2019). TNFα and IL-6 in the bronchial fluid lavage was measured by ELISA as described in the preceding section.
# Specimens taken from the left lung were embedded in paraffin and cut into 5 μm-thick slices. They were put on slides and paraffin was removed. They were rehydrated and stained with a solution of Sirius red (100 mg/100 ml of [COMPOUND LEFT OUT], rinsed in distilled water until clear, dehydrated and mounted in a resinous medium. The red stain (also called “Sirius red” stain) is one of the best understood histochemical techniques. It relies on the birefringent properties of collagen and is much more specific than the other common collagen stains, Pulmonary fibrosis was evaluated on a score of 0-4 on 15-20 different fields taken from each lung section, according to the area and intensity of fibrotic staining in the field, excluding that in blood vessels. Two independent scientists blinded to the treatment performed the analysis. For TGFβ1 staining, slides were deparaffinized and rehydrated. Antigen retrieval was performed in Tris-based buffer, pH 9.0. Endogenous peroxidase activity was quenched by incubation in 3% H2O2. The tissue was permeabilized with Triton X-100 0.1% in PBS. After blocking, sections were incubated with primary antibody: diluted rabbit recombinant monoclonal TGFβ1 antibody (Abcam ab215715) over night, at 4° C. Slices were further incubated with the secondary antibody: ImmPRESS®-HRP Goat Anti-Rabbit IgG Polymer Detection Kit, Peroxidase (Vector labs VE-MP-7451-15) at room temperature. For color development, sections were incubated in peroxidase substrate solution DAB, at room temperature until desired stain intensity developed. They were then counterstained with filtered hematoxylin and cosin, cleared and mounted.
# Experiments were performed in C57BL/6JOlaHsd male mice aged 12-13 weeks as described for ladostigil. AN1284 (2.5 mg/kg/day) was administered by micro-osmotic pumps, implanted subcutaneously under ketamine/xylazine anesthesia, 5 days before administration of bleomycin and delivered for 3 weeks. Mice were weighed daily, sacrificed on day 21 and bronchial fluid was collected. Fibrosis was measured by staining with Sirius red as described for ladostigil. TNFα and IL-6 in the bronchial fluid lavage was measured by ELISA as described for ladostigil.
# NFκB = details: LPS; cited from earlier work
smiles,measurement,setting,value
"C#CCN[C@@H]1CCc2ccc(OC(=O)N(C)CC)cc21 [Ladostigil, 6-(N-ethyl, N-methylcarbamyloxy)-N propargyl-1 (R)-aminoindan hemitartrate]",Emax,"IL1β; Mus musculus, Microglia, 8 h, 1×10^−11-1×10^−9 M, read-out: maximal reduction of IL1β",~50%
same,minimal effective concentration,"IL1β; Mus musculus, microglia, BzATP/LPS, medium containing BSA, 8 hrs, read-out: lowest concentration that significantly decreased IL1β secretion",1e-06 µM
same,reduction of IL1β release,"IL1β; all concentrations tested, added 2 hrs before BzATP and LPS, 0.1% BSA, p<0.01",reduced the 3 cytokines significantly
same,reduction of IL1β compared with reduction of TNFα,"IL1β; ladostigil 1×10^−9 M, budesonide 1×10^−11 M",greater than that of TNFα
same,Egr1 gene expression,[1],downregulated
same,Egr2 gene expression,[1],downregulated
same,Mmp12 gene expression,[1],downregulated
same,TNFαIP3 (A20) gene expression,[1],up-regulated
same,Timp1 gene expression,[1],downregulated
same,number of genes significantly altered in expression,[1],25 genes
same,fibrosis (overall conclusion),[2]; bleomycin-induced lung fibrosis murine model,shown to reduce fibrosis
same,collagen deposition (hydroxyproline),"[2]; both sexes, 5 mg/Kg/day",reduced collagen deposition
same,fibrosis (score),"[2]; females, 2.5 and 5 mg/Kg/day",significantly reduced fibrosis
same,fibrosis (score),"[2]; males, 5 and 10 mg/kg/day",significantly reduced fibrosis
same,anti-inflammatory effect in bleomycin-induced lung fibrosis model,"[2]; mouse, in vivo",does not have an anti-inflammatory effect
same,nuclear translocation of NFκB,NFκB,decrease in the nuclear translocation of NFκB
